Measured values reported in patent US20240122879A1, “COMPOSITIONS AND METHODS FOR TREATING OCULAR CHEMICAL BURNS” (OHIO STATE INNOVATION FOUNDATION, priority 2022, published 2024).

Experiments:
Assay type in all cases: cell-based, mouse
mCEC [1] = experiment: Scratch wound assay of mCECs treated with recombinant cytokines; details: recombinant proteins, FIG. 4A, 4B
Procedure: (§1) Recombinant pro-IL-1β and pro-IL-18 proteins were generated from E. coli. The proteins were treated with caspase 1 to obtain the active forms.
The coding sequences of human pro-IL-18 and pro-IL-1β were cloned into the PET28a vector, where an N-terminal 6xHis tag is added. The purification procedure is similar to the published protocol with minor modifications (Ramirez, et al. J Biol Chem. 2018 293(18): 7058-7067). Briefly, the respective plasmid was transformed into BL21 […] chemically competent cells. A single colony was picked to grow in LB media at 37° C. until OD600 researched 0.6, and 0.5 mM IPTG was used for overnight induction at ˜16° C. Harvested cells were collected by centrifugation, followed by resuspension in 50 mM Hepes (pH 7.5), 5 mM MgCl2, 1 mM PMSF, ˜0.5 mg/ml lysozyme and 50-100 U DNase I. After sonication, the cell lysates were centrifuged. The supernatant was then applied to a Ni-NTA affinity chromatography, where buffer A contained 50 mM Hepes (pH 7.5) and Buffer B contained an extra 500 mM imidazole. Fractions with the highest purities were pooled and applied to a diethylaminoethyl-cellulos (DEAE) ion exchange chromatography, where buffer A′ contained 50 mM Hepes (pH 7.5) and Buffer B′ contained an extra 500 mM NaCl. As judged by SDS PAGE, fractions with >95% purity were pooled and dialyzed in 50 mM Hepes (pH 7.5) and 100 mM NaCl.
Recombinant human caspase-1 was purchased from Enzo Life Sciences (ALX-201-056). The cleavage of pro-IL-18 or pro-IL-1β was performed at 37° C. in PBS buffer containing 2 mM DTT.
To induce cellular migration, an in vitro scratch test was performed using mCECs. Cells were treated with dissected corneas or cytokines when they reached confluence, were subsequently scratched with a micropipette tip, and incubated for up to 12 hrs. Images were taken at 0, 3, 6, and 9 hours after the initial scratch. Images of wound closure were quantified by using ImageJ software.

mCEC [2] = experiment: Transepithelial electrical resistance (TEER) of mCEC treated with recombinant proteins; details: FIG. 4C
Procedure: as §1
mCEC were seeded in transwell inserts (2×10^5 per well) and allowed to become confluent. For the protein treatment, proteins were added into the culture medium 16 or 4 hours before measurement; the EVOM2 instrument was used to measure the TEER. For the co-culture experiments, mCEC were seeded in the transwell inserts and allowed to become confluent. The isolated primary neutrophils were then seeded into 24 well plates and the EVOM2 instrument was used to measure the TEER at 24 hr.

corneal epithelial cells = experiment: ZO-1 staining of corneal epithelial cells treated with recombinant proteins; details: FIG. 4D, 4E
Procedure: as §1

Substance | mCEC wound closure / migration (mCEC [1]) | epithelial tight junctions / electrical resistance by TEER (mCEC [2]) | tight junctions by ZO-1 staining (corneal epithelial cells) | further results
active IL-1β: recombinant human pro-IL-1β from E. coli treated with caspase 1 to obtain the active form | significantly delayed mCEC wound closure | disrupted epithelial cell tight junctions | disrupted epithelial cell tight junctions | mCEC wound closure / migration (mCEC [1]; listed as activated IL-1β): significantly suppress corneal epithelial cell migration; epithelial tight junctions / electrical resistance by TEER (mCEC [2]; listed as activated IL-1β): significantly reduce the electrical resistance; tight junctions by ZO-1 staining (corneal epithelial cells; listed as activated IL-1β): tight junction was disrupted
active IL-18: recombinant human pro-IL-18 from E. coli treated with caspase 1 to obtain the active form | significantly delayed mCEC wound closure | disrupted epithelial cell tight junctions | disrupted epithelial cell tight junctions | mCEC wound closure / migration (mCEC [1]; listed as activated IL-18): significantly suppress corneal epithelial cell migration; epithelial tight junctions / electrical resistance by TEER (mCEC [2]; listed as activated IL-18): significantly reduce the electrical resistance; tight junctions by ZO-1 staining (corneal epithelial cells; listed as activated IL-18): tight junction was disrupted
boiled IL-1β: boiled recombinant IL-1β protein used as control | failed to alter mCEC migration | – | – | –
boiled IL-18: boiled recombinant IL-18 protein used as control | failed to alter mCEC migration | – | – | –
pro-IL-1β: recombinant pro-IL-1β protein generated from E. coli, used as control | failed to alter mCEC migration | – | – | –
pro-IL-18: recombinant pro-IL-18 protein generated from E. coli, used as control | failed to alter mCEC migration | – | – | –
